Among the test systems are SN12C renal; MOLT-4 leukemia; NCI/ADR-RES ovarian; DU-145 prostate; HT29 colon; MALME-3M melanoma; CAKI-1 renal; T-47D breast; HL-60(TB) leukemia; EKVX NSCLC; RXF 393 renal.
Common to all, as to assay: inhibition of tumour cell growth, NCI panel, 48 h

Results on 17 compounds are retold here after PubChem BioAssay (NCI).

Molecules are shown by their SMILES.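 Exposure lasted 48 hours, with cells grown in 96-well plates and compounds tested at five concentrations. Here, GI50 denotes the concentration required for 50% inhibition of growth. TGI is the concentration that stops growth completely.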 *1 amine or outer side, *2 acyl side, *3 side chain or, on linkers, in order; H or OH if unused. Where a SMILES comes first, the peptide text is derived from it. Bridges are numbered along the chain shown (N, C = ends). Roman numbers before positions name the chains, in order. [ ]: non-standard residue; d: D form. Actinocin(9to1) = Cc1c2oc3c(C)ccc(C(=O)[*:1])c3nc-2c(C(=O)[*:2])c(N)c1=O; NMeV = CN[CH](C(=O)O)C(C)C; Sar = CNCC(=O)O Some results are limits rather than exact numbers.

Regarding `CCOC(=O)COC1=Nc2cc(OC)c(OC)c3nc(Cl)cc(c23)C1=O`, the TGI is 3.3 µM in the assay on SN12C renal; 5.91 µM in the assay on MOLT-4 leukemia; more than 31.4 µM with NCI/ADR-RES ovarian; 3.32 µM in the assay on DU-145 prostate; 6.37 µM in the assay on HT29 colon; 2.71 µM in the assay on MALME-3M melanoma. Moreover, the TGI was 3.58 µM with CAKI-1 renal; 24 µM in the assay on T-47D breast; 0.879 µM in the assay on HL-60(TB) leukemia; 1.83 µM in the assay with EKVX NSCLC; 3.34 µM in the assay on RXF 393 renal.

Take `COC(C[C@H]1CCCC[C@]1(O)/C(=C\CO[Si](C(C)C)(C(C)C)C(C)C)Sc1ccccc1)OC`: the TGI is more than 100 µM in the assay on SN12C renal; 38.8 µM with MOLT-4 leukemia; more than 100 µM in the assay on NCI/ADR-RES ovarian; more than 100 µM in the assay with DU-145 prostate; more than 100 µM in the assay on HT29 colon; 86.4 µM with MALME-3M melanoma. For the same compound, the TGI was more than 100 µM with CAKI-1 renal; 40.8 µM with T-47D breast; more than 100 µM in the assay on HL-60(TB) leukemia; more than 100 µM in the assay on EKVX NSCLC; 55.3 µM in the assay on RXF 393 renal.

On to `CN1CCCC(OC(=O)c2cc3cc(CCl)ccc3oc2=O)C1` (stereo unspecified), for which the TGI in the assay on SN12C renal was 43.6 µM; with MOLT-4 leukemia, 98 µM; in the assay with NCI/ADR-RES ovarian it was 87 µM; with DU-145 prostate, more than 100 µM; in the assay with HT29 colon it was 46.9 µM; in the assay with MALME-3M melanoma, 44.3 µM. Also, the TGI is 60.5 µM in the assay with CAKI-1 renal; more than 100 µM in the assay on T-47D breast; 13.2 µM in the assay on HL-60(TB) leukemia; 91.5 µM with EKVX NSCLC; 54.6 µM with RXF 393 renal.

For `O=P1(N(CCCl)CCCl)NCCCO1` (stereo unspecified), the TGI in the assay with SN12C renal is more than 250 µM; in the assay on MOLT-4 leukemia it was more than 250 µM; with NCI/ADR-RES ovarian it was more than 250 µM; in the assay with DU-145 prostate, more than 250 µM; in the assay on HT29 colon, more than 231 µM; in the assay with MALME-3M melanoma it was more than 250 µM. Besides, the TGI is more than 191 µM in the assay with CAKI-1 renal; more than 250 µM in the assay with T-47D breast; 220 µM in the assay on HL-60(TB) leukemia; more than 250 µM with EKVX NSCLC; more than 250 µM in the assay on RXF 393 renal.

`COc1ccc(/C=N/N=C(\N)NO)c(OC)c1OC`: the TGI with SN12C renal is more than 100 µM; in the assay with MOLT-4 leukemia, more than 100 µM; in the assay with NCI/ADR-RES ovarian, 35.4 µM; in the assay on DU-145 prostate, more than 100 µM; in the assay with HT29 colon it was more than 100 µM; in the assay on MALME-3M melanoma, more than 100 µM. For the same compound, the TGI was more than 100 µM with CAKI-1 renal; 90.2 µM with T-47D breast; 45.8 µM in the assay on HL-60(TB) leukemia; more than 100 µM with EKVX NSCLC; more than 100 µM with RXF 393 renal.

`O=C1/C(=C(/Br)I)c2ccccc2-c2ccccc21`: the TGI came to 33.7 µM in the assay with SN12C renal; 6.27 µM with MOLT-4 leukemia; 30.4 µM with NCI/ADR-RES ovarian; 30 µM in the assay on DU-145 prostate; 18.3 µM in the assay with HT29 colon; 11.5 µM in the assay on MALME-3M melanoma. The TGI in the assay with CAKI-1 renal is 16.9 µM; with T-47D breast, more than 80.4 µM; in the assay on HL-60(TB) leukemia, 0.516 µM; in the assay with EKVX NSCLC, 32.6 µM; in the assay on RXF 393 renal, 13.1 µM.

Take `COc1cccc(OC/C(N=Cc2ccncc2)=N/NC(=O)c2ccncc2)c1`: the TGI in the assay with SN12C renal, in the assay with MOLT-4 leukemia, in the assay with NCI/ADR-RES ovarian, with DU-145 prostate, in the assay with HT29 colon and with MALME-3M melanoma was more than 100 µM in each case. For the same compound, the TGI in the assay with CAKI-1 renal, in the assay with T-47D breast, in the assay on HL-60(TB) leukemia, with EKVX NSCLC and in the assay on RXF 393 renal was more than 100 µM throughout.

Turning to `O=c1[nH]nc(N/N=C\c2ccc(Cl)cc2)c2ccccc12`, the TGI is 73 µM in the assay on SN12C renal; more than 100 µM in the assay with MOLT-4 leukemia; 39 µM in the assay with NCI/ADR-RES ovarian; 72 µM in the assay with DU-145 prostate; more than 100 µM in the assay with HT29 colon; 45.4 µM in the assay with MALME-3M melanoma. Moreover, the TGI is 34 µM with CAKI-1 renal; 69.2 µM with T-47D breast; more than 100 µM with HL-60(TB) leukemia; more than 100 µM in the assay on EKVX NSCLC; 56.2 µM in the assay with RXF 393 renal.

Turning to `CCC1(O)CC(O)c2c(O)c3c(c(O)c2C1C(=O)OC)C(=O)c1cccc(O)c1C3=O` (stereo unspecified), the TGI was determined as 17.3 µM in the assay with SN12C renal; 2.19 µM in the assay on MOLT-4 leukemia; 3.28 µM in the assay on NCI/ADR-RES ovarian; 21.8 µM in the assay with DU-145 prostate; 14.1 µM in the assay with HT29 colon; 7.08 µM in the assay with MALME-3M melanoma. Besides, the TGI with CAKI-1 renal came to 15.3 µM; in the assay on T-47D breast it was 32.8 µM; with HL-60(TB) leukemia, 6.07 µM; in the assay with EKVX NSCLC it was 6.65 µM; with RXF 393 renal, 23.5 µM.

As for `CCOc1ccccc1N=NC1C(=O)N(C(=O)CC(=O)Nc2ccccc2OC)N=C1C` (stereo unspecified), the TGI in the assay on SN12C renal, in the assay on MOLT-4 leukemia, with NCI/ADR-RES ovarian, in the assay with DU-145 prostate, in the assay on HT29 colon and in the assay on MALME-3M melanoma was more than 100 µM each time. Besides, the TGI with CAKI-1 renal is more than 100 µM; with T-47D breast it was more than 100 µM; in the assay with HL-60(TB) leukemia, more than 100 µM; in the assay with EKVX NSCLC it was 21.8 µM; in the assay with RXF 393 renal, 81.5 µM.

In the case of `COc1ccc(OC)c(-c2cn3c(n2)sc2ccccc23)c1`, the TGI with SN12C renal, in the assay with MOLT-4 leukemia, in the assay with NCI/ADR-RES ovarian, in the assay with DU-145 prostate, with HT29 colon and in the assay with MALME-3M melanoma was more than 100 µM each time. In addition, the TGI with CAKI-1 renal, with T-47D breast, in the assay on HL-60(TB) leukemia, in the assay on EKVX NSCLC and in the assay with RXF 393 renal was more than 100 µM in each case.

Regarding `CCC(=O)Nc1ccc(N2C(=O)/C(=C/c3ccc(O)c(OC)c3)N=C2c2ccccc2)cc1`, the TGI in the assay with SN12C renal, in the assay on MOLT-4 leukemia, in the assay on NCI/ADR-RES ovarian, in the assay on DU-145 prostate, in the assay with HT29 colon and in the assay on MALME-3M melanoma was more than 100 µM throughout. Besides, the TGI in the assay on CAKI-1 renal was more than 100 µM; in the assay on T-47D breast, more than 100 µM; with HL-60(TB) leukemia it was more than 100 µM; with EKVX NSCLC, 46.4 µM; in the assay on RXF 393 renal, 48.4 µM.

As to `O=[N+]([O-])c1cccc([N+](=O)[O-])c1Cl`, the TGI in the assay with SN12C renal was 79.9 µM; in the assay with MOLT-4 leukemia, more than 100 µM; with NCI/ADR-RES ovarian, 57.4 µM; in the assay with DU-145 prostate it was 11.4 µM; with HT29 colon, 45.1 µM; in the assay with MALME-3M melanoma, 34.7 µM. Further, the TGI in the assay on CAKI-1 renal was found to be 7.68 µM; with T-47D breast, 14.7 µM; in the assay with HL-60(TB) leukemia, 24.2 µM; with EKVX NSCLC, 46.4 µM; in the assay with RXF 393 renal, 38.3 µM.

On to `Cn1c(=O)[nH]n(-c2ccc3ccccc3c2)c1=O`, for which the TGI with SN12C renal, with NCI/ADR-RES ovarian, in the assay on DU-145 prostate, in the assay with HT29 colon, with MALME-3M melanoma and with CAKI-1 renal was more than 100 µM throughout. Besides, the TGI in the assay on T-47D breast, in the assay with HL-60(TB) leukemia, in the assay with EKVX NSCLC and in the assay on RXF 393 renal was more than 100 µM in each case.

In the case of `COc1ccc(-c2cc(-c3ccc(OC)c(OC)c3)nc(SCCCC(=O)NO)n2)cc1`, the GI50 in the assay on NCI/ADR-RES ovarian is 0.977 µM; in the assay on DU-145 prostate, 1.53 µM; with HT29 colon it was 1.87 µM; in the assay with MALME-3M melanoma, 0.896 µM; in the assay on CAKI-1 renal, 0.431 µM; in the assay with T-47D breast, 1.42 µM. For the same compound, the results for the GI50 in the assay on HL-60(TB) leukemia, in the assay with EKVX NSCLC and with RXF 393 renal were 1.64 µM, 1.73 µM and 0.587 µM, respectively. For the same compound, the TGI in the assay on NCI/ADR-RES ovarian was 4.77 µM; with DU-145 prostate, 17.7 µM; in the assay with HT29 colon it was more than 100 µM; in the assay on MALME-3M melanoma it was 4.88 µM; in the assay with CAKI-1 renal it was 2.37 µM; in the assay on T-47D breast it was more than 100 µM. The TGI in the assay with HL-60(TB) leukemia is 5.99 µM; with EKVX NSCLC, more than 100 µM; in the assay with RXF 393 renal, 2.5 µM.

Take `Cc1c2oc3c(C)ccc(C(=O)NC4C(=O)NC(Cc5ccc(O)cc5)C(=O)N5CCCC5C(=O)N(C)CC(=O)N(C)C(C(C)C)C(=O)OC4C)c3nc-2c(C(=O)NC2C(=O)NC(Cc3ccc(O)cc3)C(=O)N3CCCC3C(=O)N(C)CC(=O)N(C)C(C(C)C)C(=O)OC2C)c(N)c1=O` (stereo unspecified) (I: TYP[Sar][NMeV] / II: TYP[Sar][NMeV]; ester I:1-I:C, II:1-II:C; linker I:N-II:N via Actinocin(9to1); configuration not given here): the TGI in the assay with SN12C renal is more than 100 µM; in the assay with NCI/ADR-RES ovarian it was more than 100 µM; with DU-145 prostate it was more than 72.7 µM; with HT29 colon, more than 100 µM; with MALME-3M melanoma, 44.3 µM; in the assay on CAKI-1 renal, 27.5 µM. Also, the TGI was more than 79.9 µM with T-47D breast, more than 76.2 µM with HL-60(TB) leukemia, more than 100 µM with EKVX NSCLC and more than 57.3 µM in the assay on RXF 393 renal.

Take `C=C(C)[C@@H]1CC[C@]2(C(=O)OC3OC(COC4OC(CO)C(OC5OC(C)C(O)C(O)C5O)C(O)C4O)C(O)C(O)C3O)CC[C@]3(C)[C@H](CC[C@@H]4[C@@]5(C)CC[C@H](O)[C@@](C)(CO)[C@@H]5CC[C@]43C)[C@@H]12` (stereo partly specified): the TGI is 9.79 µM in the assay with SN12C renal; more than 10 µM with NCI/ADR-RES ovarian; more than 10 µM with DU-145 prostate; more than 10 µM with HT29 colon; more than 10 µM in the assay with MALME-3M melanoma; more than 9.66 µM in the assay with CAKI-1 renal. Moreover, the TGI with T-47D breast is more than 10 µM; with HL-60(TB) leukemia it was 1.13 µM; in the assay on EKVX NSCLC, more than 10 µM; in the assay on RXF 393 renal it was more than 10 µM.
